Columns and labels:
Format in all cases: biochemical
[1] = system: fructosyl peptide oxidase (FPOX-CET); experiment: Acceleration of fructosyl valyl histidine detection reaction with small amount of fructosyl peptide oxidase (Example 7); conditions: 0.04% (w/v) compound, 0.48 U/ml FPOX-CET; for effect of accelerating the fructosyl valyl histidine detection reaction: versus not added; for Degree of progression of reaction (%) after 7.5 minutes / Degree of progression of reaction (%) after 10 minutes: fructosyl valyl histidine detection reaction, ΔA/ΔA100%; for Degree of progression of reaction (%) after 7.5 minutes: 2.5 minutes after addition of second reagent, not added: 57; for Degree of progression of reaction (%) after 10 minutes: 5 minutes after addition of second reagent, not added: 81
Description: Next, in this Example, the degree of acceleration of fructosyl valyl histidine detection reaction by the compound of the present invention was determined using a small amount of fructosyl peptide oxidase.
A reagent for fructosyl valyl histidine measurement having the following composition was prepared, and the measurement of fructosyl valyl histidine was carried out using Bio Majesty JCA-BM 1650 (manufactured by JEOL Ltd.).
32 μM fructosyl valyl histidine (manufactured by Kikkoman Biochemifa Company)
30 mM MOPS-NaOH buffer solution, pH 7.0
0.2% (v/v) Triton X-100 (manufactured by Wako Pure Chemical Industries, Ltd.)
(§1) 10 U/ml peroxidase PEO-301 (Toyobo Co., Ltd.)
(§2) 0.023 mM 10-(carboxymethylaminocarbonyl)-3,7-bis(dimethylamino)phenothiazine sodium (DA-67, manufactured by Wako Pure Chemical Industries, Ltd.)
(§3) 0.04% (w/v) of the compound of Comparative Example 2, any one compound of the present invention, or compound-free (Comparative Example 1) ion-exchange water as shown in Table 1
10 mM MOPS-NaOH buffer solution, pH 7.0
0.48 U/ml FPOX-CET (manufactured by Kikkoman Biochemifa Company)
8 μl of the sample was added to 96 μl of the first reagent-B, and the mixture was incubated at 37° C. for 5 minutes. Then, 24 μl of the second reagent-D was added thereto, and the quantitative reaction of hydrogen peroxide resulting from the oxidation of fructosyl valyl histidine was allowed to progress at 37° C. for 5 minutes. The absorbance (A694 and A751) of the reaction solution for light at wavelengths of 694 nm and 751 nm was measured over time for 10 minutes after the mixing of the sample with the first reagent-B to determine the value of subtraction of A751 from A694. i.e., the value A694/751. Subsequently, ΔA was calculated by subtracting, from A694/751, the value of (104/128) times A694/751 4.8 minutes after the mixing of the sample with the first reagent-B. Incidentally, 5 minutes after the mixing of the sample with the first reagent-B represents the time immediately before the addition of the second reagent-D.
Next, ΔA calculated in this Example was divided by […] defined in Example 6 to calculate the degree of progression of fructosyl valyl histidine detection reaction. The degree of progression of fructosyl valyl histidine detection reaction 7.5 and 10 minutes after the mixing of the sample with the first reagent-B (in other words, 2.5 and 5 minutes after the addition of the second reagent-D) is shown in Table 4.

[2] = system: fructosyl amino acid oxidase (FAOD-E); experiment: Fructosyl valine detection reaction completed with excess fructosyl amino acid oxidase (Example 8); conditions: 0.04% (w/v) compound, 21.4 U/ml FAOD-E (excess), 32 μM fructosyl valine, pH 8.0, 37° C.; for ΔA9 min: change in A694-A751 9 minutes after mixing; for ΔA10 min: change in A694-A751 10 minutes after mixing, defined as ΔA100%
Description: In this Example, the amount of change in absorbance is determined when the detection reaction of the substrate fructosyl valine was completed using an excess amount of fructosyl amino acid oxidase (FAOD-E), which is an oxidase.
A reagent for fructosyl valine measurement having the following composition was prepared, and the measurement of fructosyl valine using fructosyl amino acid oxidase was carried out using Bio Majesty JCA-BM 1650 (manufactured by JEOL Ltd.).
(§4) 32 μM fructosyl valine (manufactured by Kikkoman Biochemifa Company)
(§5) 30 mM MOPS-NaOH buffer solution, pH 8.0
(§6) 0.2% (v/v) NYMEEN F-215 (manufactured by NOF Corp.)
as §1
0.023 mM 10-(carboxymethylaminocarbonyl)-3,7-bis(dimethylamino)phenothiazine sodium
(DA-67, manufactured by Wako Pure Chemical Industries, Ltd.)
as §3
(§7) 10 mM MOPS-NaOH buffer solution, pH 8.0
21.4 U/ml FAOD-E (manufactured by Kikkoman Biochemifa Company)
(§8) 8 μl of the sample was added to 96 μl of the first reagent-C, and the mixture was incubated at 37° C. for 5 minutes. Then, 24 μl of the second reagent-E was added thereto, and the quantitative reaction of hydrogen peroxide resulting from the oxidation of fructosyl valine was allowed to progress at 37° C. for 5 minutes. The absorbance (A6% and A751) of the reaction solution for light at wavelengths of 694 nm and 751 nm was measured over time for 10 minutes after the mixing of the sample with the first reagent-C to determine the value of subtraction of A751 from A694, i.e., the value A694/751. Subsequently, ΔA was calculated by subtracting, from A694/751, the value of (104/128) times A694/751 4.8 minutes after the mixing of the sample with the first reagent-C. Incidentally, 4.8 minutes after the mixing of the sample with the first reagent-C represents the time immediately before the addition of the second reagent-E. ΔA 9 minutes and 10 minutes after the mixing of the diluted sample with the first reagent-C (ΔA9min and ΔA10min) are shown in Table 5.
In other words, it can be recognized that the quantitative reaction of fructosyl valine, i.e., the quantitative reaction of hydrogen peroxide resulting from the oxidation of fructosyl valine, was completed in 10 minutes after the mixing of the diluted sample with the first reagent-C. Accordingly, in Examples 8 and 9, ΔA10min in each Comparative Example or the present invention was defined as ΔA when 100% of the quantitative reaction of HbA1c progressed under each condition (ΔA100%).

[3] = system: fructosyl amino acid oxidase (FAOD-E); experiment: Acceleration of fructosyl valine detection reaction with small amount of fructosyl amino acid oxidase (Example 9); conditions: 0.04% (w/v) compound, 2.14 U/ml FAOD-E; for effect of accelerating fructosyl valine detection reaction: versus not added; for Degree of progression of reaction (%) after 7.5 minutes / Degree of progression of reaction (%) after 10 minutes: fructosyl valine detection reaction, ΔA/ΔA100%; for Degree of progression of reaction (%) after 7.5 minutes: 2.5 minutes after addition of second reagent, not added: 29; for Degree of progression of reaction (%) after 10 minutes: 5 minutes after addition of second reagent, not added: 48
Description: Next, in this Example, the degree of acceleration of fructosyl valine detection reaction by the compound of the present invention was determined using a small amount of fructosyl amino acid oxidase.
A reagent for fructosyl valine measurement having the following composition was prepared, and the measurement of fructosyl valine was carried out using Bio Majesty JCA-BM1650 (manufactured by JEOL Ltd.).
as §4, §5, §6, §1, §2, §3, §7
2.14 U/ml FAOD-E (manufactured by Kikkoman Biochemifa Company)
as §8, with “second reagent-F” for “second reagent-E”, “absorbance (A694” for “absorbance (A6%”, “Incidentally, 5” for “Incidentally, 4.8”, “second reagent-F.” for “second reagent-E. ΔA 9 minutes and 10 minutes after the mixing of the diluted sample with the first reagent-C (ΔA9min and ΔA10min) are shown in Table 5.”
Next, ΔA calculated in this Example was divided by ΔA100% defined in Example 8 to calculate the degree of progression of fructosyl valine detection reaction. The degree of progression of fructosyl valine detection reaction 7.5 and 10 minutes after the mixing of the sample with the first reagent-C (in other words, 2.5 and 5 minutes after the addition of the second reagent-F) is shown in Table 6.

## Xylene Fast Yellow 2G
[1]
  effect of accelerating the fructosyl valyl histidine detection reaction: effect of accelerating the fructosyl valyl histidine detection reaction
  Degree of progression of reaction (%) after 7.5 minutes: 63%
  Degree of progression of reaction (%) after 10 minutes: 96%

## O=C([O-])c1cc(N=Nc2ccc([N+](=O)[O-])cc2)ccc1O.[Na+] [Mordant Orange 1]
[2]
  ΔA9 min: 0.049
  ΔA10 min: 0.051
[3]
  effect of accelerating fructosyl valine detection reaction: effect of accelerating fructosyl valine detection reaction
  Degree of progression of reaction (%) after 7.5 minutes: 37%
  Degree of progression of reaction (%) after 10 minutes: 59%

## O=C(O)c1cc(N=Nc2ccc3cc(S(=O)(=O)O)ccc3c2)ccc1O.[Na] [Chrome Yellow]
[1]
  effect of accelerating the fructosyl valyl histidine detection reaction: effect of accelerating the fructosyl valyl histidine detection reaction
  Degree of progression of reaction (%) after 7.5 minutes: 62%
  Degree of progression of reaction (%) after 10 minutes: 86%
[2]
  ΔA9 min: 0.066
  ΔA10 min: 0.067
[3]
  effect of accelerating fructosyl valine detection reaction: effect of accelerating fructosyl valine detection reaction
  Degree of progression of reaction (%) after 7.5 minutes: 43%
  Degree of progression of reaction (%) after 10 minutes: 68%

## O=C([O-])c1cc(N=Nc2cccc([N+](=O)[O-])c2)ccc1O.[Na+] [Alizarin Yellow GG]
[2]
  ΔA9 min: 0.044
  ΔA10 min: 0.046
[3]
  effect of accelerating fructosyl valine detection reaction: effect of accelerating fructosyl valine detection reaction
  Degree of progression of reaction (%) after 7.5 minutes: 38%
  Degree of progression of reaction (%) after 10 minutes: 62%

## COc1cc(N=Nc2cccc(S(=O)(=O)[O-])c2)ccc1NC(=O)Nc1ccc(N=Nc2ccc(O)c(C(=O)[O-])c2)cc1.[Na+].[Na+] [Direct Yellow 44]
[1]
  effect of accelerating the fructosyl valyl histidine detection reaction: effect of accelerating the fructosyl valyl histidine detection reaction
  Degree of progression of reaction (%) after 7.5 minutes: 66%
  Degree of progression of reaction (%) after 10 minutes: 88%

## Cc1nn(-c2cc(S(=O)(=O)[O-])ccc2Cl)c(O)c1N=Nc1ccccc1.[Na+] [Acid Yellow 34]
[1]
  effect of accelerating the fructosyl valyl histidine detection reaction: effect of accelerating the fructosyl valyl histidine detection reaction
  Degree of progression of reaction (%) after 7.5 minutes: 62%
  Degree of progression of reaction (%) after 10 minutes: 86%

## COc1cc(N=Nc2ccc(N)cc2)c(C)cc1N [Disperse Diazo Black 3BF]
[2]
  ΔA9 min: 0.062
  ΔA10 min: 0.061
[3]
  effect of accelerating fructosyl valine detection reaction: effect of accelerating fructosyl valine detection reaction
  Degree of progression of reaction (%) after 7.5 minutes: 86%
  Degree of progression of reaction (%) after 10 minutes: 89%
